Consider two compounds from article PMC9769694, “Discovery of Two Inhibitors of the Type IV Pilus Assembly ATPase PilB as Potential Antivirulence Compounds” (Microbiology Spectrum, 2022).

Molecules are shown by their SMILES. “And” between values parts separate entries of the source, which are not always exact repeats. Equal values may be shown once.

In assay [1] the target is T1, CtPilB (Chloracidobacterium thermophilum, UniProt G2LDI3). The assay is described as follows: MANT-ATP binding to CtPilB (fluorescence). The settings on record: for Ki: estimated by Cheng-Prusoff equation from MANT-ATP IC50, assuming competitive inhibition, read-out: Ki (inhibition constant); for IC50: fraction of MANT-ATP bound, fluorescence. As to the method:
To probe the mechanisms of inhibition, we examined benserazide and levodopa for their effects on the binding of PilB to the fluorescent ATP analog MANT-ATP ([28]).
FIG 3 Benserazide and levodopa reduce MANT-ATP binding to CtPilB. Fluorescence was used to calculate the fraction of MANT-ATP bound to CtPilB. Experiments were performed in triplicates with samples containing constant concentrations of CtPilB and MANT-ATP with varying concentrations of (A) benserazide or (B) levodopa. The three different sets of colored dots represent averages from three independent experiments with error bars omitted for clarity. Best fits to isotherms with indicated IC50s are shown.
(§1) The effects of inhibitors on the ATPase activity of CtPilB and CtPilBΔN and the binding of MANT-ATP were determined as described previously ([28], [29]). Stock solutions were prepared by dissolving benserazide hydrochloride (Alfa Aesar) or levodopa (Spectrum Chemical Mfg. Corp.) in dimethyl sulfoxide (DMSO; Fisher Biotech). Next, 10× working stocks for given concentrations of an inhibitor were freshly prepared before their use in an experiment. GraphPad Prism v7.04 was used for curve fitting and Student’s t test was used for statistical analysis.

The test system of assay [2] is M. xanthus pilin (PilA) production. Put plainly: Pilin production, dot blot of whole cells with anti-PilA antibodies. Type of assay: cell-based, Myxococcus xanthus. The settings on record: strain YZ603, whole cell dot blot. The protocol:
Fig. 6A and B show a representative of the data from three biological experiments, each conducted with 4 technical replicates (R1 to R4).
Piliation levels of the M. xanthus strain YZ603 (ΔdifE) ([52]) were analyzed by dot-blotting with anti-PilA antibodies as previously described ([28]). This study included a fraction representing the “Basal” T4P levels for a given treatment. […] These fractions were used as controls and subtracted as the baseline in data analysis.

In assay [3] the test system is Escherichia coli. The assay is described as follows: Growth in liquid culture. The settings on record: up to 512 μM (highest tested), data not shown. Type of assay: cell-based. An excerpt:
(§2) These include many bacteria with alarming prevalence for causing antibiotic-resistant infection ([12]). […] This is important because, for the development of antivirulence chemotherapies, the small molecules should not have an inhibitory effect on bacterial growth. Otherwise, they would select for resistance, just like antibiotics. From a chemical structure perspective, levodopa is 3,4-dihydroxyphenylalanine (Fig. 2), or phenylalanine with two hydroxyl groups. […] These preliminary studies of structure and activity relationships are consistent with benserazide and levodopa being specific inhibitors of PilB. As mentioned earlier, work with trifluoperazine ([25]) and P4MP4 ([26], [27]) has provided the proof of principle for antivirulence therapies with anti-T4P compounds. It is also encouraging that a compound targeting the adhesin function of the type 1 pilus of the uropathogenic E. coli (UPEC) ([47]) has moved to the clinical trial phase in the drug development pipeline ([48]).

The target of assay [4] is T2, CtPilBΔN (Chloracidobacterium thermophilum, UniProt G2LDI3).
T2 sequence (G2LDI3 140-614): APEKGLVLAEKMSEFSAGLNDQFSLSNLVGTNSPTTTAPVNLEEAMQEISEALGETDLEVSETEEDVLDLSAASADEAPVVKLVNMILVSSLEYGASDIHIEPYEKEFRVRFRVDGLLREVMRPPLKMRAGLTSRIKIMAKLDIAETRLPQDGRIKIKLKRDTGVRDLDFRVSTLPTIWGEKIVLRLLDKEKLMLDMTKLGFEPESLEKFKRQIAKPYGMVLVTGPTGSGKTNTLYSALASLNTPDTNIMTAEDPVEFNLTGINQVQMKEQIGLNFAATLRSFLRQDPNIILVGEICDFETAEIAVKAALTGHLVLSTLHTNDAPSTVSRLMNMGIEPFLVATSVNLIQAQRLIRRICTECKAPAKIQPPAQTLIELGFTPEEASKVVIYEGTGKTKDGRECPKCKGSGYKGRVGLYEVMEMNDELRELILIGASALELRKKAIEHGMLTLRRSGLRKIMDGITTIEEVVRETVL
Put plainly: ATPase assay of truncated CtPilB variant without N-terminal MshEN domain. Type of assay: biochemical. The settings on record: read-out: IC50, ATPase activity of PilBΔN. The text has this:
CtPilB, like its orthologue MshE ([35]), has a MshEN-like cyclic di-GMP-binding domain at its N terminus and a well-conserved ATPase domain at its C terminus ([28], [29]). To determine which domain the inhibitors interact with, we tested the effects of benserazide and levodopa on the ATPase activity of a truncated CtPilB variant (PilBΔN) without the N-terminal MshEN domain ([29]). […] These values are similar to those against the full-length PilB (Fig. 2).
The full-length CtPilB and the CtPilBΔN variant (with the first 139 residues at the N terminus truncated) were purified as preciously described ([29]). The HTS was conducted using 384-well microplates (Greiner, cat no. 781101). Each microwell for the screen contained a 15-μL reaction mixture consisting of 75 nM CtPilB, 0.5 mM ATP, 20 μM of a library compound, and 2% DMSO in activity buffer (50 mM N-tris(hydroxymethyl)methyl-3-aminopropanesulfonic acid [TAPS], 50 mM Tris, 75 mM KCl, 50 mM sodium acetate, 5 mM MgCl2, 50 mM ZnCl2 [pH 8.7]) ([29]). Reaction mixtures were incubated at 55°C for 10 min and transferred to ice for 5 min to stop the enzymatic reaction. […] Absorbance at 620 nm (A620) was measured using a SpectraMax M5 microplate reader at room temperature. […]
The effects of inhibitors on the ATPase activity of CtPilB and CtPilBΔN and the binding of MANT-ATP were determined as described previously ([28], [29]). […]

The target in assay [5] is T1, CtPilB. Put plainly: Malachite green ATPase assay, dose response (benchtop). The settings on record: IC50, CtPilB ATPase activity, full-length CtPilB, curve fitting, three independent experiments. It is filed as biochemical. As to the method:
The full-length CtPilB and the CtPilBΔN variant (with the first 139 residues at the N terminus truncated) were purified as preciously described ([29]). The HTS was conducted using 384-well microplates (Greiner, cat no. 781101). Each microwell for the screen contained a 15-μL reaction mixture consisting of 75 nM CtPilB, 0.5 mM ATP, 20 μM of a library compound, and 2% DMSO in activity buffer (50 mM N-tris(hydroxymethyl)methyl-3-aminopropanesulfonic acid [TAPS], 50 mM Tris, 75 mM KCl, 50 mM sodium acetate, 5 mM MgCl2, 50 mM ZnCl2 [pH 8.7]) ([29]). Reaction mixtures were incubated at 55°C for 10 min and transferred to ice for 5 min to stop the enzymatic reaction. MG reagent (50 μL) was added to each well for color development. After a 15-minute incubation, 5 μL of 34% (wt/vol) sodium-citrate (MP Chemicals) was added and the plate was mixed by shaking ([28], [29]). Absorbance at 620 nm (A620) was measured using a SpectraMax M5 microplate reader at room temperature. The HTS was performed at the Virginia Tech Center for Drug Discovery (VTCDD) Screening Laboratory.
as §1

The subject of assay [6] is A. nosocomialis. Put plainly: Growth in liquid culture. Type of assay: cell-based, Acinetobacter nosocomialis. The settings on record: up to 512 μM (highest tested), data not shown.
From the text: as §2

The test system of assay [7] is M. xanthus. Put plainly: Growth in liquid culture. It is filed as cell-based, Myxococcus xanthus. The settings on record: up to 512 μM (highest tested), data not shown.
From the text: as §2

Usually Ki stands for the equilibrium dissociation constant of an inhibitor or competing ligand from its target. One may read the IC50 as the concentration at which inhibition is half-maximal.

T1 sequence (G2LDI3 entry or part of it): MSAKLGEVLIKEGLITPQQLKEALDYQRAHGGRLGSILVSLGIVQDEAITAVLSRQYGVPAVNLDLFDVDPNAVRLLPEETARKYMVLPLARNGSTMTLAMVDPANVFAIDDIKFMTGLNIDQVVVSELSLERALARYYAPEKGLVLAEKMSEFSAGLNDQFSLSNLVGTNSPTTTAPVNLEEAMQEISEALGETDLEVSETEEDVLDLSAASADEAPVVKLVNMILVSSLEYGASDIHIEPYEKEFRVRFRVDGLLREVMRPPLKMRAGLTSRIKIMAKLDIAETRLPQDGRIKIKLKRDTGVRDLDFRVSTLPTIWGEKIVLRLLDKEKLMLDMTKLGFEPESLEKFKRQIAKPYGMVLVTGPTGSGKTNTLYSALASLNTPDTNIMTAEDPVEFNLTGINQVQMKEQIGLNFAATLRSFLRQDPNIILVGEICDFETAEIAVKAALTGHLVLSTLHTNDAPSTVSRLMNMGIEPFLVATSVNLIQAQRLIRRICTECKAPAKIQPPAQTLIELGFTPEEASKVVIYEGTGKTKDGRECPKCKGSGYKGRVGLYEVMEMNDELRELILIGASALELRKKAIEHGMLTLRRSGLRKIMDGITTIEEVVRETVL

Turning to `NC(CO)C(=O)NNCc1ccc(O)c(O)c1O` (stereo not shown) [benserazide], the Ki in assay [1] is 2.27 µM. Moreover, the half-maximal inhibitory concentration (IC50) in assay [1] amounted to 33.6 ± 0.5 µM; in assay [4], 2.2 ± 0.4 µM; in assay [5] it was 2.1 ± 0.4 µM. For the same compound, in assay [2], the “effect on pilin production level” value is given as “neither compound had any detectable effect”. Also, the “effect on growth in liquid culture” value in assay [3], in assay [6] and in assay [7] was “neither benserazide nor levodopa had any discernible effect on the growth” each time.

Regarding `N[C@@H](Cc1ccc(O)c(O)c1)C(=O)O` [levodopa, 3,4-dihydroxyphenylalanine], the inhibitory constant (Ki) in assay [1] is 3.4 µM. For the same compound, the IC50 was 50.5 ± 9.2 µM in assay [1]; 76.2 ± 9.2 µM in assay [4]; 58 µM and 58.8 µM in assay [5]. Moreover, the “effect on pilin production level” value in assay [2] is reported as “neither compound had any detectable effect”. For the same compound, the “effect on growth in liquid culture” value in assay [3], in assay [6] and in assay [7] was “neither benserazide nor levodopa had any discernible effect on the growth” each time.
